Read-outs that look alike come from different tables or passages of the source.
What was measured:
Type in all cases: cell-based
[1] = molecular target: T1, human Bradykinin B1 receptor (Homo sapiens, UniProt P46663); experiment: Calcium flux Assay (FLIPR) with recombinant CHO-K1 cells expressing human Bradykinin B1 receptor, in presence (hB1 IC50) or absence (hB1 free IC50) of 0.1% BSA
T1 construct: host or cells: CHO-K1
T1 sequence (P46663 1-353): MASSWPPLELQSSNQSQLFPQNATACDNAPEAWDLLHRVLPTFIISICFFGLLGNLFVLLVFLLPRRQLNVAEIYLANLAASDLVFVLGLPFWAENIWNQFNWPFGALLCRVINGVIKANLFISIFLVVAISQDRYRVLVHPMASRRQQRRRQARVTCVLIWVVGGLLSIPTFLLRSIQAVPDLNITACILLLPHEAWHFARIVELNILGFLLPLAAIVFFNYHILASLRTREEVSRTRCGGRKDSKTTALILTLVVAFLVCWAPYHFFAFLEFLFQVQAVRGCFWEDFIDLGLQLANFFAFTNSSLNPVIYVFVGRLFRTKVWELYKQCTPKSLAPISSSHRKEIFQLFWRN

IL-6 secretion = experiment: Inhibitory activity on Bradykinin B1 agonist-induced secretion of IL-6 in human IMR-90 cells; conditions: 30 min compound, stimulated with 0.1 μM Lys-[Des-Arg9]Bradykinin and 0.1 μM Sar-[D-Phe8]-des-Arg9-Bradykinin for 5 hours
Text: (§1) Inhibitory activity on Bradykinin B1 agonist-induced secretion of IL-6 and IL-8 in human IMR-90 cells
(§2) The effect of the compound examples on secretion of the cytokine IL-6 and IL-8 has been investigated in the human foetal lung fibroblast IMR-90 cell line. Here the induction of the cytokine secretion was induced by the Bradykinin B1 agonists Lys-[Des-Arg9]Bradykinin (CAS 71800-36-7, Tocris Bioscience) and Sar-[D-Phe8]-des-Arg9-Bradykinin (CAS 126959-88-4, Tocris Bioscience) leading to the activation of the Bradykinin B1-driven signalling pathway. This effect is indicative for a strong anti-inflammatory mode of action in kinin driven inflammation.
(§3) IMR-90 cells were cultured in Eagle's Minimum Essential Medium (EMEM) containing 2 mM L-glutamine, 1 g/L glucose, 1.5 g/L NaHCO3, 1 mM sodium pyruvate and non-essential amino acids (ATCC, 30-2003™) supplemented with 10% FBS (Biochrom, S0615) and 50 U/mL Penicillin, 50 μg/mL Streptomycin (PAA, P11-010). The assay was performed in EMEM and a cell density of […] IMR-90 cells/96-well. The compound examples have been serial diluted in 100% DMSO and evaluated at 8 different concentrations within the range of 3 nM and 10 μM and a final DMSO concentration of 0.4%. The IMR-90 cells have been incubated with the respective concentration of the compound for 30 min. The enhanced secretion of IL-6 and IL-8 was induced by the stimulation of these cells with 0.1 μM Lys-[Des-Arg9]Bradykinin (Tocris, catalogue no. 3225) and 0.1 μM Sar-[D-Phe8]-des-Arg9-Bradykinin (Tocris, catalogue no. 3230) for 5 hours at 37° C. and 5% C02. Further, cells have been treated with Lys-[Des-Arg9]Bradykinin and Sar-[D-Phe8]-des-Arg9-Bradykinin as neutral control and with 0.1% DMSO as inhibitor control. The amount of IL-6 and IL-8 in the supernatant was determined using the Human Prolnflammatory Panel II (4-Plex) (MSD, K15025B) according to manufacturer's instruction. Briefly, supernatants were added onto assay plates and incubated at room temperature for 1-2 h with vigorous shaking at 600 rpm. Detection antibodies were then added onto the supernatants and incubated at room temperature for an additional 1-2 h with vigorous shaking at 600 rpm. Plates were washed three times with phosphate-buffered saline (PBS; 137 mM NaCl, 2.7 mM KCl, 6.5 mM Na2HPO4, 1.7 mM KH2P04) containing 0.05% Tween-20 (Bio-Rad, 161-0781) and electrochemiluminescence detected using the MSD Sector Imager 6000 plate reader. The cell viability was measured using the CellTiter-Glo Luminescent Assay (Promega, G7571) following the manufacturers protocol. Briefly, the CellTiter-Glo Reagent was diluted with PBS (1:1) and added directly to cells. After incubation and shaking for 10 minutes luminescent signal was measured which is proportional to the amount of ATP present.
(§4) The effect of the compound on the amount of secreted cytokine has been calculated as 100/(measured cytokine concentration of neutral control-measured cytokine concentration of inhibitor control)*(measured cytokine concentration of compound dose-measured cytokine concentration of inhibitor control). IC50 values are determined using 4-parameter-fit.
(§5) The compound examples were tested in triplicates per plate and the inhibitory activity was determined as the relation between neutral and inhibitor control in percent. IC50 values were calculated using the 4-parameter logistic model.

IL-8 secretion = experiment: Inhibitory activity on Bradykinin B1 agonist-induced secretion of IL-8 in human IMR-90 cells; conditions: 30 min compound, stimulated with 0.1 μM Lys-[Des-Arg9]Bradykinin and 0.1 μM Sar-[D-Phe8]-des-Arg9-Bradykinin for 5 hours
Text: as §1, §2, §3, §4, §5

[2] = in absence of 0.1% BSA, read-out: hB1 free IC50
[3] = in presence of 0.1% BSA, read-out: hB1 IC50

| IC50 [1, 2] [nM] | IC50 [1, 3] [nM] | IC50 (IL-6 secretion) [nM] | IC50 (IL-8 secretion) [nM] | Structure (SMILES) |
| --- | --- | --- | --- | --- |
| 3.35 | 22.6 | 225 | 60 | COc1ccc(-c2ccc(NC(=O)C3(c4cccc(Cl)c4)CC3)cc2-c2nnn[nH]2)cc1OC [Example 1, 1-(3-Chlorophenyl)-N-[3′,4′-dimethoxy-2-(1H-tetrazol-5-yl)biphenyl-4-yl]cyclopropanecarboxamide] |
| 16.1 | 33.5 | 57 | 75 | CCOc1ccc(-c2ccc(NC(=O)C3(c4cccc(Cl)c4)CC3)cc2-c2nnn[nH]2)cn1 [Example 253, 1-(3-Chlorophenyl)-N-[4-(6-ethoxypyridin-3-yl)-3-(1H-tetrazol-5-yl)phenyl]cyclopropanecarboxamide] |
